From PMC8863796 (Communications Biology, 2022)
“And” between values parts separate entries of the source, which are not always exact repeats. Equal values may be shown once. “Also recorded” adds a separate entry of the source. Read-outs that look alike come from different tables or passages of the source.

How the values were obtained:
[1] = target: SARS-CoV-2 exonuclease complex (nsp14/nsp10) (Severe acute respiratory syndrome coronavirus 2, UniProt P0DTD1); format: biochemical
SARS-CoV-2 [2] = experiment: microbe, parasite or virus in culture; format: cell-based; details: for EC25: concentration used in combinations; for virus titer: Calu-3, MOI 0.1, three columns per treatment
SARS-CoV-2 [3] = format: cell-based; parameters: Response: unit not given here
Cytotoxicity assay (XTT) = format: cell-based; details: human
Procedure: Monolayers of 1.5 × 10^4 cells in 96-well plates were treated for 3 days with various concentrations (semi-log dilutions from 1000 to 10 µM) of the antiviral drugs. Then, 5 mg/ml 2,3-bis-(2-methoxy-4-nitro-5-sulfophenyl)-2H-tetrazolium-5-carboxanilide (XTT) in DMEM was added to the cells in the presence of 0.01% N-methyl dibenzopyrazine methyl sulfate (PMS). After incubating for 4 h at 37 °C, the cells were measured in a spectrophotometer at 492 nm and 620 nm.

[4] = 30 nM nsp14/nsp10, 500 nM RNA, 30, 100, 300 µM
[5] = Drug2 100 nM alone (Drug1 0 nM)
[6] = Drug2 1000 nM alone (Drug1 0 nM)
[7] = Drug2 5000 nM alone (Drug1 0 nM)
[8] = Table S-1, 3 days treatment, XTT, read-out: CC50
[9] = Severe acute respiratory syndrome coronavirus 2, 48 h, Calu-3 cells, MOI 0.1, 48-72 h, PFU in Vero E6, NS5A inhibitor at fixed concentration in combinations
[10] = Drug1 100 nM alone (Drug2 0 nM)
[11] = Drug1 1000 nM alone (Drug2 0 nM)
[12] = Drug1 10000 nM alone (Drug2 0 nM)
[13] = combined with Ombitasvir, Calu-3 cells

CC(C)c1nc(CN(C)C(=O)N[C@H](C(=O)N[C@@H](Cc2ccccc2)C[C@H](O)[C@H](Cc2ccccc2)NC(=O)OCc2cncs2)C(C)C)cs1 [Ritonavir]
inhibition of SARS-CoV-2 exonuclease activity [1, 4]: exonuclease activity was inhibited; also recorded: inhibit the SARS-CoV-2 exonuclease in a concentration-dependent manner, but with less potency than Pibrentasvir and Ombitasvir

COC(=O)N[C@H](C(=O)N1CCC[C@H]1c1nc2cc([C@H]3CC[C@H](c4cc5nc([C@@H]6CCCN6C(=O)[C@@H](NC(=O)OC)[C@@H](C)OC)[nH]c5cc4F)N3c3cc(F)c(N4CCC(c5ccc(F)cc5)CC4)c(F)c3)c(F)cc2[nH]1)[C@@H](C)OC [Pibrentasvir]
EC25 (SARS-CoV-2 [2]; Calu-3 cells): 0.1 µM | inhibition of SARS-CoV-2 exonuclease activity ([1]; 500 nM RNA, 50 nM nsp14/nsp10, 37 °C, 15 min, varying amounts of inhibitor (Pibrentasvir 1, 10, 20 μM)): reduced exonuclease activity in a concentration-dependent manner | inhibition of SARS-CoV-2 exonuclease activity ([1]; 20 μM, Favipiravir-, NHC- and AT-9010-terminated RNA): exonuclease activity was largely abrogated | inhibition of SARS-CoV-2 exonuclease activity ([1]; 20 µM, RNA with delayed termination by Remdesivir, 400 nM RNA): exonuclease activity was inhibited | inhibition of SARS-CoV-2 exonuclease activity ([1]; 20 µM, Sofosbuvir- and Remdesivir-terminated RNA): exonuclease activity was substantially inhibited | inhibition of SARS-CoV-2 exonuclease activity ([1]; 20 µM, Tenofovir-terminated RNA): exonuclease activity was almost completely eliminated | Response (percentage of inhibition) (SARS-CoV-2 [3]; Conc1 0 nM, Conc2 10 nM): 2% | Response (percentage of inhibition) (SARS-CoV-2 [3]; Conc1 0 nM, Conc2 100 nM): 20% | Response (percentage of inhibition) (SARS-CoV-2 [3]; Conc1 0 nM, Conc2 1000 nM): 50% | Response (percentage of inhibition) (SARS-CoV-2 [3]; Conc1 0 nM, Conc2 5000 nM): 75% | Response (SARS-CoV-2 [3]; Drug2 10 nM alone (Drug1 0 nM)): 2 | Response (SARS-CoV-2 [3]; [5]): 20 | Response (SARS-CoV-2 [3]; [6]): 50 | Response (SARS-CoV-2 [3]; [7]): 75 | combination effect (SynergyFinder) (SARS-CoV-2 [3]; with Favipiravir): synergistic (scores above 10) | combination effect (SynergyFinder) (SARS-CoV-2 [3]; with RDV): synergistic (scores above 10) | combination effect (SynergyFinder) (SARS-CoV-2 [3]; with Sofosbuvir): additive (between 10 and −10) | combination effect (SynergyFinder) (SARS-CoV-2 [3]; with Tenofovir): additive (between 10 and −10) | CC50 at 3 days (Cytotoxicity assay (XTT); [8]): 22 ± 3 µM

COC(=O)N[C@H](C(=O)N1CCC[C@H]1C(=O)Nc1ccc([C@@H]2CC[C@@H](c3ccc(NC(=O)[C@@H]4CCCN4C(=O)[C@@H](NC(=O)OC)C(C)C)cc3)N2c2ccc(C(C)(C)C)cc2)cc1)C(C)C [Ombitasvir]
EC25 (SARS-CoV-2 [2]; Calu-3 cells): 0.1 µM | Response (percentage of inhibition) (SARS-CoV-2 [3]; Conc1 0 nM, Conc2 10 nM): 2% | Response (percentage of inhibition) (SARS-CoV-2 [3]; Conc1 0 nM, Conc2 100 nM): 20% | Response (percentage of inhibition) (SARS-CoV-2 [3]; Conc1 0 nM, Conc2 1000 nM): 50% | Response (percentage of inhibition) (SARS-CoV-2 [3]; Conc1 0 nM, Conc2 5000 nM): 75% | Response (SARS-CoV-2 [3]; Drug2 10 nM alone (Drug1 0 nM)): 2 | Response (SARS-CoV-2 [3]; [5]): 20 | Response (SARS-CoV-2 [3]; [6]): 50 | Response (SARS-CoV-2 [3]; [7]): 75 | combination effect (SynergyFinder) (SARS-CoV-2 [3]; with Favipiravir): synergistic (scores above 10) | combination effect (SynergyFinder) (SARS-CoV-2 [3]; with RDV): synergistic (scores above 10) | combination effect (SynergyFinder) (SARS-CoV-2 [3]; with Sofosbuvir): synergistic (scores above 10) | combination effect (SynergyFinder) (SARS-CoV-2 [3]; with Tenofovir): synergistic (scores above 10) | CC50 at 3 days (Cytotoxicity assay (XTT); [8]): 70 ± 12 µM

Cc1cccc(C)c1OCC(=O)N[C@@H](Cc1ccccc1)[C@@H](O)C[C@H](Cc1ccccc1)NC(=O)[C@H](C(C)C)N1CCCNC1=O [Lopinavir]
inhibition of SARS-CoV-2 exonuclease activity [1, 4]: exonuclease activity was inhibited; also recorded: inhibit the SARS-CoV-2 exonuclease in a concentration-dependent manner, but with less potency than Pibrentasvir and Ombitasvir

CCC(CC)COC(=O)[C@H](C)N[P@](=O)(OC[C@H]1O[C@@](C#N)(c2ccc3c(N)ncnn23)[C@H](O)[C@@H]1O)Oc1ccccc1 [Remdesivir]
EC99 Mean (SARS-CoV-2 [2]; Calu-3 cells, MOI 0.1, 48-72 h, PFU in Vero E6, NS5A inhibitor at fixed concentration in combinations): 1.1 µM | virus titer (SARS-CoV-2 [2]; Drug Concentration 0.01 μM, listed as RDV): 6.40E+05 PFU/mL and 5.76E+05 PFU/mL and 6.08E+05 PFU/mL | virus titer (SARS-CoV-2 [2]; Drug Concentration 0.1 μM, listed as RDV): 3.20E+05 PFU/mL and 1.92E+05 PFU/mL and 2.56E+05 PFU/mL | virus titer (SARS-CoV-2 [2]; Drug Concentration 10 μM): 2.00E+03 PFU/mL | fold improvement of efficacy at the 90% level (SARS-CoV-2 [2]; by Pibrentasvir (0.1 μM)): six- | fold improvement of efficacy at the 99% level (SARS-CoV-2 [2]; by Pibrentasvir (0.1 μM)): threefold | Response (percentage of inhibition) (SARS-CoV-2 [3]; Conc1 1 nM, Conc2 0 nM): 20% | Response (percentage of inhibition) (SARS-CoV-2 [3]; Conc1 10 nM, Conc2 0 nM): 43% | Response (percentage of inhibition) (SARS-CoV-2 [3]; Conc1 100 nM, Conc2 0 nM): 76.92% | Response (percentage of inhibition) (SARS-CoV-2 [3]; Conc1 1000 nM, Conc2 0 nM): 99.13% | CC50 at 3 days (Cytotoxicity assay (XTT); [8]): 480 ± 55 µM

CC(C)OC(=O)OCOP(=O)(CO[C@H](C)Cn1cnc2c(N)ncnc21)OCOC(=O)OC(C)C [Tenofovir, Tenofovir disoproxil]
virus titer (SARS-CoV-2 [2]; Drug Concentration 1 μM): 1.02E+06 PFU/mL and 5.76E+05 PFU/mL and 7.98E+05 PFU/mL | virus titer (SARS-CoV-2 [2]; Drug Concentration 10 μM): 8.00E+04 PFU/mL and 4.00E+04 PFU/mL and 6.00E+04 PFU/mL | EC50 (SARS-CoV-2 [2]; [9]): 4.3 µM | fold increase of potency (SARS-CoV-2 [2]; by Pibrentasvir (0.1 μM)): tenfold | excision of the incorporated nucleotide analogue from RNA by the exonuclease ([1]; no inhibitor, 37 °C, 15 min, compared with A-terminated natural RNA): mostly resistant to excision by the SARS-CoV-2 exonuclease | Response (SARS-CoV-2 [3]; Drug1 10 nM alone (Drug2 0 nM)): 5 | Response (SARS-CoV-2 [3]; [10]): 30 | Response (SARS-CoV-2 [3]; [11]): 58.46 | Response (SARS-CoV-2 [3]; [12]): 88.46 | CC50 at 3 days (Cytotoxicity assay (XTT); [8]): 91 ± 25 µM

CC(C)OC(=O)[C@H](C)N[P@](=O)(OC[C@H]1O[C@@H](n2ccc(=O)[nH]c2=O)[C@](C)(F)[C@@H]1O)Oc1ccccc1 [Sofosbuvir]
virus titer (SARS-CoV-2 [2]; Drug Concentration 0.01 μM): 6.40E+05 PFU/mL and 1.28E+06 PFU/mL and 9.60E+05 PFU/mL | virus titer (SARS-CoV-2 [2]; Drug Concentration 1 μM): 3.52E+05 PFU/mL | Response (percentage of inhibition) (SARS-CoV-2 [3]; Conc1 10 nM, Conc2 0 nM): 10% | Response (percentage of inhibition) (SARS-CoV-2 [3]; Conc1 100 nM, Conc2 0 nM): 20% | Response (percentage of inhibition) (SARS-CoV-2 [3]; Conc1 1000 nM, Conc2 0 nM): 74.62% | Response (percentage of inhibition) (SARS-CoV-2 [3]; Conc1 10000 nM, Conc2 0 nM): 76.92% | CC50 at 3 days (Cytotoxicity assay (XTT); [8]): 512 ± 34 µM

COC(=O)N[C@H](C(=O)N1CCC[C@H]1c1nc(-c2ccc(-c3ccc(-c4c[nH]c([C@@H]5CCCN5C(=O)[C@@H](NC(=O)OC)C(C)C)n4)cc3)cc2)c[nH]1)C(C)C [Daclatasvir]
EC25 (SARS-CoV-2 [2]; Calu-3 cells): 0.5 µM | EC50 (SARS-CoV-2 [2]; [9]): 0.7 µM | EC90 (SARS-CoV-2 [2]; [9]): 3.8 µM | Response (percentage of inhibition) (SARS-CoV-2 [3]; Conc1 0 nM, Conc2 100 nM): 3% | Response (percentage of inhibition) (SARS-CoV-2 [3]; Conc1 0 nM, Conc2 500 nM): 10% | Response (percentage of inhibition) (SARS-CoV-2 [3]; Conc1 0 nM, Conc2 1000 nM): 45% | Response (percentage of inhibition) (SARS-CoV-2 [3]; Conc1 0 nM, Conc2 5000 nM): 62% | Response (SARS-CoV-2 [3]; [5]): 3 | Response (SARS-CoV-2 [3]; Drug2 500 nM alone (Drug1 0 nM)): 10 | Response (SARS-CoV-2 [3]; [6]): 45 | Response (SARS-CoV-2 [3]; [7]): 62 | combination effect (SynergyFinder) (SARS-CoV-2 [3]; with RDV): additive (between 10 and −10) | combination effect (SynergyFinder) (SARS-CoV-2 [3]; with the other RdRp inhibitors tested (Fig. 8b-d)): synergistic (scores above 10) | CC50 at 3 days (Cytotoxicity assay (XTT); [8]): 38 ± 5 µM

NC(=O)c1nc(F)cnc1O [Favipiravir, 6-fluoro-3-hydroxy-2-pyrazinecarboxamide]
virus titer (SARS-CoV-2 [2]; Drug Concentration 0.01 μM): 8.96E+05 PFU/mL and 1.41E+06 PFU/mL | virus titer (SARS-CoV-2 [2]; Drug Concentration 0.1 μM): 5.76E+05 PFU/mL and 7.04E+05 PFU/mL | virus titer (SARS-CoV-2 [2]; Drug Concentration 1 μM): 4.48E+05 PFU/mL and 5.12E+05 PFU/mL | virus titer (SARS-CoV-2 [2]; Drug Concentration 10 μM): 4.16E+05 PFU/mL and 2.24E+05 PFU/mL | EC50 (SARS-CoV-2 [2]; [9]): 7.8 µM | fold increase of potency (SARS-CoV-2 [2]; by Pibrentasvir (0.1 μM)): tenfold | inhibition of SARS-CoV-2 (SARS-CoV-2 [2]; [13]): 2 log10 | reduction of virus replication (SARS-CoV-2 [2]; [13]): 99% | Response (SARS-CoV-2 [3]; Drug1 10 nM alone (Drug2 0 nM)): 10 | Response (SARS-CoV-2 [3]; [10]): 49 | Response (SARS-CoV-2 [3]; [11]): 63 | Response (SARS-CoV-2 [3]; [12]): 70 | CC50 at 3 days (Cytotoxicity assay (XTT)): 670 ± 118 µM
